Assay results as given in patent US9801845B2 (priority 2015, dated 2017).
Positions of bridges follow the written chain, without caps; N, C: chain ends. Non-standard residues stand in square brackets, D forms with d. Residues, ends and D or L forms follow the SMILES beside them. *: point of attachment. Ileψ(thiazoline)Cys = CC[C@H](C)[C@H](N)C1=N[C@H](C(=O)*)CS1; dOrn = NCCC[C@@H](N)C(=O)O

Tests used:
C. perfringens [1] = type: cell-based, Clostridium perfringens; conditions: TSA-thioglycolate broth, 250 μL of 2% w/v, overnight, anaerobic
C. perfringens [2] = type: cell-based, Clostridium perfringens; conditions: FIG. 2

SMILES: CC[C@H](C)[C@H](N)C1=N[C@H](C(=O)N[C@@H](CC(C)C)C(=O)N[C@H](CCC(=O)O)C(=O)N[C@H](C(=O)N[C@H]2CCCCNC(=O)[C@H](CC(N)=O)NC(=O)[C@@H](CC(=O)O)NC(=O)[C@H](Cc3cnc[nH]3)NC(=O)[C@@H](Cc3ccccc3)NC(=O)[C@H]([C@@H](C)CC)NC(=O)[C@@H](CCCN)NC2=O)[C@@H](C)CC)CS1 [Bacitracin] ({Ileψ(thiazoline)Cys}-L[dE]IK[dOrn]I[dF]H[dD]N; lactam 4-C)
- inhibition of C. perfringens growth (counts) (C. perfringens [1]): complete inhibition
- inhibition of the growth of C. perfringens, crop assay (C. perfringens [2]; crop supernatant pH 5.34, 250 μL of 2% w/v, 24 h): complete inhibition
- reduction of C. perfringens, ileal assay (in words) (C. perfringens [2]; ileal supernatant pH 7.01, 24 h): almost complete reduction
- effectiveness against C. perfringens, proventricular assay (C. perfringens [2]; proventricular supernatant pH 2.54, 250 μL of 2% w/v, 24 h): not effective
